Read-outs that look alike come from different tables or passages of the source.
Tested on: Adult mongrel dogs
Assay: Cardiotonic activity: hemodynamic and inotropic responses (MAP, HR, dP/dt, contractile force) in anesthetized dogs, iv infusion
Format: in vivo, mongrel dog
Conditions: Canis lupus familiaris, Table 2, 1.875 mpk iv
Experimental: Adult mongrel dogs were anesthetized with sodium pentobarbital (45 mg/kg, i.p.) and artificially respired. Mean arterial pressure (MAP) was recorded from a cannulated femoral artery and drugs were infused into a cannulated femoral vein. The arterial pressure pulse was used to trigger a cardiotachometer for determination of heart rate (HR). Left ventricular pressure was measured with a Millar catheter and dP/dtmax was derived. A right thoracotomy was performed and myocardial contractile force (CF) was measured with a Walton Brodie strain gauge sutured to the right ventricle. The ventricular muscle was stretched to produce a baseline tension of 100 g. A standard dose of dopamine (10-15 ug/kg/min for 3 min) was administered to determine myocardial responsiveness to inotropic stimulation.
Test compounds were solubilized in a small volume of DMF diluted to a final concentration of 10% in physiological saline. Alternatively, where possible, a soluble hydrochloride salt was prepared by addition of 0.1N HCl diluted in physiological saline. Vehicles were tested in appropriate volumes and found to exert less than a 5% effect on contractile force. For iv studies, compounds were administered by infusion pump (one drug per animal) at rates of 0.58-2.2 mL/min in three to four stepwise increasing doses. Each dose was infused over 5 min immediately after the effect of the previous dose peaked. MAP, HR, dP/dtmax and CF responses were continuously monitored on a Beckman or Gould recorder and expressed as a percent change from pre-drug control values vs. the cumulative dose of drug administered. For these studies, n represents the number of test animals used.
Quantitation of the inotropic potency was obtained by calculation of the contractile force (CF) ED50. This was defined as the dose of compound that produced a 50% increase above baseline in myocardial contractile force. The value was obtained from three to four point dose-response curves using either graphical estimation (n<3) or linear regression analysis (n≥3). Numbers in parentheses are number of animals screened.

[1] = read-out: CF (myocardial contractile force), percent change from pre-drug control
[2] = read-out: HR (heart rate), percent change from pre-drug control
[3] = read-out: MAP (mean arterial pressure), percent change from pre-drug control
[4] = read-out: dP/dt (left ventricular dP/dtmax), percent change from pre-drug control

SMILES | change in vivo at 1.875 mg/kg [1] [%] | change in vivo at 1.875 mg/kg [2] [%] | change in vivo at 1.875 mg/kg [3] [%] | change in vivo at 1.875 mg/kg [4] [%]
CN(CC(O)CN1CCN(C(c2ccc(F)cc2)c2ccc(F)cc2)CC1)c1ncnc2[nH]cnc12 (stereo not drawn) [Example 28, 6-[3-[4-[Bis(4-fluorophenyl)methyl]piperazin-1-yl]-2-hydroxypropyl-N-methylamino]purine Hemihydrate] | 95 | 16 | 9 | 82
Cn1cnc2c(SCC(O)CN3CCN(C(c4ccc(F)cc4)c4ccc(F)cc4)CC3)ncnc21 (stereo not drawn) [Example 29, 9-Methyl-6-[1-[1-[bis(4-fluorophenyl)methyl]piperazin-4-yl]-2-hydroxy-3-propanylthio]purine Hemihydrate] | 50 | -2 | -6 | 11
Cc1nc(SCC(O)CN2CCN(C(c3ccc(F)cc3)c3ccc(F)cc3)CC2)c2nc[nH]c2n1 (stereo not drawn) [Example 30, 2-Methyl-6-[1-[1-[bis(4-fluorophenyl)methyl]piperazin-4-yl]-2-hydroxy-3-propanylthio]purine 3/4Hydrate] | 23 | 1 | 1 | 17

— patent US5164390A, “6-substituted purinyl piperazine derivatives” (Ortho Pharmaceutical Corporation, priority 1991, dated 1992)
